{"source": "patent US8629116B2", "about": "“Method for inducing a TRIF-bias” (priority 2008, dated 2014)", "key": {"THP-1 cells": {"system": "THP-1 cells", "experiment": "Cytokine induction with dominant negative MyD88 or TRIF constructs in THP-1 macrophages", "type": "cell-based, human", "settings": "for induction of TRIF-dependent cytokines when TRIF is knocked down: dominant negative TRIF construct", "procedure": "THP-1 cells are seeded in 12-well plates (5×10^5 cells/well) and incubated in 0.5 mL RPMI 1640 (ATCC) with 100 U/mL penicillin/100 ug/mL streptomycin (Sigma) with 20 ng/mL phorbol mystyric acid (PMA) (InvivoGen) for differentiation into macrophages. After differentiation of the THP-1, the media is changed to THP-1 media with 5 ng/mL PMA and the cells are transiently transfected with 0.5 μg/well of the pDeNy-hMyD88/LacZ, pDeNy-TRIF/LacZ, or pUNO-mcs (control)/LacZ plasmids and Fugene 6 transfection reagent for 48 h. Media is exchanged for fresh media and the cells are then stimulated with the indicated concentrations of TLR4 agonists for 14 hours. Harvested supernatants are assayed for cytokine levels by multiplex sandwich ELISA (R&D Systems) with the luminex platform. Control wells are assayed for transfection efficiency using the Invivogen LacZ Quantitation Kit."}, "[1]": {"system": "human PBMC-derived macrophages", "experiment": "Cytokine/chemokine induction in the presence of the endocytosis inhibitor Dynasore", "type": "cell-based", "settings": "with Dynasore; for MyD88-dependent MIP-1α induction under inhibition of endocytosis: relative to non-treated cells"}, "human TLR4, MD-2, CD14": {"biological_target": "T1, human TLR4, MD-2, CD14 (Homo sapiens, UniProt O00206+Q9Y6Y9)", "T1 construct": "host or cells: HEK293-hTLR4/hMD2/hCD14", "T1 sequence (O00206 24-839)": "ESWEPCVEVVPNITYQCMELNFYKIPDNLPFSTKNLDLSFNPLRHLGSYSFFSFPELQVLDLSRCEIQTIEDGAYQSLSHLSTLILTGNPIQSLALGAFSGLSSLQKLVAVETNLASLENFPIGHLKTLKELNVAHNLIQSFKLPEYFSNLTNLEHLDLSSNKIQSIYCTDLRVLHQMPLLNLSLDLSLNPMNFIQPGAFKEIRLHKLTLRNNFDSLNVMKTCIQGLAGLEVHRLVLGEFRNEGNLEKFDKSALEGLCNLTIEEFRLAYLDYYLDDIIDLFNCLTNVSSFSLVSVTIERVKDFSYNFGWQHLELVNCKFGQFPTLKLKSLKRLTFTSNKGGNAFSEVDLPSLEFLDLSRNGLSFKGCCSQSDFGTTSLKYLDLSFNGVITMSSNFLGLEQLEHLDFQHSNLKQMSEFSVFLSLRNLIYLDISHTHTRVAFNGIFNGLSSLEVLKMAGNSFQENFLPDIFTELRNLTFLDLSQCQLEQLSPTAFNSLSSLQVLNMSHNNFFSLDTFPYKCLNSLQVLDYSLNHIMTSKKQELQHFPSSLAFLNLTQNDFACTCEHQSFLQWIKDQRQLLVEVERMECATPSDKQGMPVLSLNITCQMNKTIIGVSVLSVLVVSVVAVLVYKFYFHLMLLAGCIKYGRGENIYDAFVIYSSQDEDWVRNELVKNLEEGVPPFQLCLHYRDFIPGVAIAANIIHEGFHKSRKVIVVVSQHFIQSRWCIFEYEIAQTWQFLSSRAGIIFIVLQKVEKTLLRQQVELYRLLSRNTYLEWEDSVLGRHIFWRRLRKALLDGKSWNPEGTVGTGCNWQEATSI", "T1 sequence (Q9Y6Y9 19-160)": "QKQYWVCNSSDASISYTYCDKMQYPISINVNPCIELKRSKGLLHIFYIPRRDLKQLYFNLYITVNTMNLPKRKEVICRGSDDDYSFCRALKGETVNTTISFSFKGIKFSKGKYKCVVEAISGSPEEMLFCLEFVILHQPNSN", "experiment": "NF-κB reporter activity in HEK293 cells transfected with human TLR4/MD-2/CD14", "type": "cell-based", "settings": "HEK293 huTLR4/huMD-2/huCD14, NFκB reporter plasmid", "procedure": "HEK293-hTLR4/hMD2/hCD14 cells are seeded in 12-well plates (4×10^5 cells/well) and are cultured until 40-60% confluent (2-3 days). The cells are transfected for 24 hours with 100 ng of NF-κB reporter construct expressing secreted human embryonic alkaline phosphatase under the control of an engineered ELAM promoter with five NF-κB sites (pNiFty2-SEA-InvivoGen; San Diego, Calif.) and a transfection control plasmid constitutively expressing a thymidine kinase promoter driven luciferase (Promega). […] After transfection, cells are stimulated for 14 h with TLR4 agonists, and the cleared supernatant is assayed for SEAP activity (SEAP Reporter Assay Kit-InvivoGen) to quantify NF-κB activation and luciferase activity (Promega) to normalize for transfection efficiency following supplied protocols."}, "[2]": {"experiment": "Induction of serum cytokines/chemokines in mice", "type": "in vivo, mouse", "settings": "C57BL/6 mice, 2 or 6 hours post injection", "method": "Female BALB/c or C57B1/6 mice are obtained from Charles River Laboratories, USA, and are 7 to 9 weeks of age when the experiments are initiated. Mice are injected intraperitoneally with 200 uL of agonist in vehicle (0.2% glycerol) or vehicle alone. Serum samples are drawn at 2 or 6 hours post-injection and are tested for induction of cytokines/chemokines by multiplex sandwich ELISA (Invitrogen) on the Luminex platform. All animals are used in accordance with guidelines established by the Public Health Service and the Institutional Animal Care and Use Committee at GlaxoSmithKline Biologicals, Hamilton, Mont.\nTo ensure that this response is not specific to BALB/c mice, a similar test of serum cytokine induction in C57BL/6 mice is carried out. (FIG. 16). The kinetics (induction at 2 or 6 hours post injection) and magnitude of cytokine induction are similar for CRX-527 and CRX-547 for both MyD88-dependent (TNFα, IL-10) and TRIP-dependent (RANTES, IP-10, MIG) cytokines/chemokines, although the relative induction by CRX-547 is slightly less for select cytokines than that seen in BALB/c (not shown). […]"}, "[3]": {"biological_target": "T2, human TLR4 and murine MD-2 (UniProt O00206+Q9JHF9)", "T2 construct": "expressed in transfected cells; host or cells: HEK293", "T2 sequence (O00206 24-839)": "as the sequence (O00206 24-839) above", "T2 sequence (Q9JHF9 19-160)": "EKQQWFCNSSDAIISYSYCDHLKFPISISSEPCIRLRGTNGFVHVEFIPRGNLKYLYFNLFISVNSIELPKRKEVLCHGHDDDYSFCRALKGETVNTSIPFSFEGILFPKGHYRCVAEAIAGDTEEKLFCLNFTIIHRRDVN", "experiment": "NFκB promoter activity in HEK293 cells with chimeric human TLR4 and murine MD-2", "type": "cell-based, human/mouse", "settings": "HEK293 huTLR4/muMD-2"}, "[4]": {"experiment": "Rabbit toxicology study by IM route", "type": "in vivo", "settings": "for hematology: granulocytosis: day 9 (2 days post-2°), resolves by day 21; for gross pathology: white discoloration of muscle along needle track and at site of injection: low dose (5 μg); for overall impression of toxicity: n=3 rabbits/group", "method": "Groups of three rabbits (NZW—Western Oregon Rabbit Company, Philomath, Oreg.) are vaccinated with 1 mL diluted AGP, or MPL control, IM on days 0, 7 and 14. Two doses of AGP are evaluated. All animals are monitored for body weight, temperature, clinical condition and draize score. Animals are sacrificed one week post final administration. Blood is collected pretreatment, two days after the 2nd vaccination and upon sacrifice for hematology and clinical chemistry. Histopathology of injection sites and major organs are conducted according to standard practices. All animals are used in accordance with guidelines established by the Public Health Service and the Institutional Animal Care and Use Committee at GlaxoSmithKline Biologicals, Hamilton, Mont.\nToxicity of CRX-527, 524, 547 and compound 1 is evaluated in rabbits receiving AGP only by the intramuscular (IM) route. Groups of three rabbits are vaccinated with 1 mL diluted AGP, or MPL control, IM on days 0, 7 and 14. Two doses of AGP are evaluated: high (25 μg) and low (5 μg). All animals are monitored for body weight, temperature, clinical condition and draize score. Animals are sacrificed one week post final administration. Blood is collected pretreatment, two days after the 2nd vaccination and upon sacrifice for hematology and clinical chemistry. Histopathology of injection sites and major organs are conducted."}, "[5]": {"system": "human PBMC-derived monocytes", "experiment": "Cytokine/chemokine gene expression (qPCR time course) in human PBMC-derived monocytes", "type": "cell-based", "settings": "for time of highest IFNβ gene induction: qPCR time course", "source_text": "Initial experiments include time course analysis of MyD88- and TRIF-dependent cytokine gene induction using qPCR."}, "[6]": {"system": "RAW264.7 (macrophage) cells", "experiment": "TNFα and IP-10 production in RAW264.7 cells", "type": "cell-based, mouse", "source_text": "To better compare and confirm the similarity of potency between the L and D isomers in murine cells, RAW264.7 (macrophage) cells are stimulated over a wider dose range with CRX-527, CRX-547, compounds 1a and 1b and the supernatants assayed for MyD88 (TNFα) and TRIF-dependent (IP-10) production.\nSince MyD88-dependent signaling after TLR4 stimulation should be earlier than TRIF dependent signaling, and because both MyD88 and TRIF can induce downstream TNFα production due to activation of the NFκB pathway, an earlier timepoint is tested for cytokine production after stimulation with the L and D isomers."}, "[7]": {"system": "human peripheral blood mononuclear cells (PBMCs)", "experiment": "Cytokine/chemokine induction in fresh human PBMCs", "type": "cell-based", "method": "Peripheral blood mononuclear cells (PBMCs) are isolated from the blood of healthy donors via a Ficoll Hypaque 1.077 gradient and treated with agonists or are used to isolate adherent monocytes in monocyte media (RPMI 1640 (ATCC), 10% human AB serum (Lonza/BioWhittaker), 100 U/mL penicillin/100 ug/mL streptomycin (Sigma), 50 uM 2-mercaptoethanol (Sigma) as described (Stover et al. 4440-49; Kawai et al. 5887-94; Gervassi et al. 7231-39). Monocyte-derived macrophages are produced by incubating adherent monocytes for 5 days in monocyte media with 50 ng/mL rhM-CSF (R&D Systems) with media changes at day 3 and day 5 before agonist treatment. Monocyte-derived dendritic cells (DC) are produced by incubating adherent monocytes for 7 days in monocyte media with 10 ng/mL rhGM-CSF and 10 ng/mL rhIL-4 (R&D Systems) with media changes on day 3 and day 6.\nExpression of TNFα and MIP-1α are dependent upon signaling through the TLR4 adaptor, MyD88, while expression of IP-10 and RANTES are dependent upon signaling through the TLR4 adaptor, TRIF/TICAM-1 (Hoebe et al, Kawai et al)."}, "[8]": {"settings": "dominant negative MyD88 construct"}, "[9]": {"settings": "compared among LPS, CRX-527, CRX-547"}}}
{"smiles": "CCCCCCCCCCCC(CC(=O)NC(COC1OC(CO)C(OP(=O)(O)O)C(OC(=O)CC(CCCCCCCCCCC)OC(=O)CCCCCCCCC)C1NC(=O)CC(CCCCCCCCCCC)OC(=O)CCCCCCCCC)C(=O)O)OC(=O)CCCCCCCCC.CCN(CC)CC", "note": "(stereo not shown) [CRX-527]", "values": [{"measurement": "induction of MyD88-dependent cytokine (TNFα) when MyD88 signaling is inhibited", "setting": "THP-1 cells; [8]", "value": "significantly reduced"}, {"measurement": "induction of TRIF-dependent cytokine RANTES when MyD88 signaling is inhibited", "setting": "THP-1 cells; [8]", "value": "only slightly reduced"}, {"measurement": "induction of TRIF-dependent cytokines when TRIF is knocked down", "setting": "THP-1 cells", "value": "reduced to a similar extent"}, {"measurement": "TRIF-dependent RANTES induction under inhibition of endocytosis", "setting": "[1]", "value": "inhibits"}, {"measurement": "MyD88-dependent MIP-1α induction under inhibition of endocytosis", "setting": "[1]", "value": "increases slightly"}, {"measurement": "NF-κB promoter/reporter activation", "setting": "human TLR4, MD-2, CD14", "value": "significantly higher activation"}, {"measurement": "kinetics and magnitude of serum cytokine induction (TNFα, IL-10, RANTES, IP-10, MIG)", "setting": "[2]", "value": "similar"}, {"measurement": "induction of promoter activity, CRX-527 versus CRX-547", "setting": "[3]", "value": "large relative difference"}, {"measurement": "injection site histopathology (myositis)", "setting": "[4]; high dose", "value": "most consistent and greatest"}, {"measurement": "hematology: granulocytosis", "setting": "[4]; high dose", "value": "trend of granulocytosis"}, {"measurement": "gross pathology: white discoloration of muscle along needle track and at site of injection", "setting": "[4]", "value": "seen"}, {"measurement": "hematology: granulocytosis", "setting": "[4]; low dose", "value": "trend of granulocytosis"}, {"measurement": "overall impression of toxicity", "setting": "[4]", "value": "mildly toxic"}, {"measurement": "MyD88-dependent cytokine/chemokine gene expression", "setting": "[5]", "value": "greater"}, {"measurement": "TRIF-dependent cytokine/chemokine gene expression", "setting": "[5]", "value": "greater"}, {"measurement": "time of highest IFNβ gene induction", "setting": "[5]", "value": 1, "unit": "h"}, {"measurement": "potency for IP-10 production", "setting": "[6]; four hours of stimulation", "value": "slightly more potent"}, {"measurement": "potency for TNFα production", "setting": "[6]; four hours of stimulation", "value": "slightly more potent"}, {"measurement": "potency for IP-10 production", "setting": "[6]; wider dose range", "value": "more potent"}, {"measurement": "potency for TNFα production", "setting": "[6]; wider dose range", "value": "more potent"}]}
{"smiles": "CCCCCCCCCCCC(CC(=O)NC(COC1OC(CO)C(OP(=O)(O)O)C(OC(=O)CC(CCCCCCCCCCC)OC(=O)CCCCCCCCC)C1NC(=O)CC(CCCCCCCCCCC)OC(=O)CCCCCCCCC)C(=O)O)OC(=O)CCCCCCCCC.CCN(CC)CC", "note": "(stereo not shown) [CRX-547]", "values": [{"measurement": "induction of MIP-1α (MyD88-dependent)", "setting": "[7]; [9]", "value": "significantly lower levels"}, {"measurement": "induction of TNFα (MyD88-dependent)", "setting": "[7]; [9]", "value": "significantly lower levels"}, {"measurement": "induction of IP-10 (TRIF-dependent)", "setting": "[7]; relative to CRX-527 and LPS", "value": "comparable levels"}, {"measurement": "induction of RANTES (TRIF-dependent)", "setting": "[7]; relative to CRX-527 and LPS", "value": "comparable levels"}, {"measurement": "induction of MyD88-dependent cytokine (TNFα) when MyD88 signaling is inhibited", "setting": "THP-1 cells; [8]", "value": "unaffected"}, {"measurement": "induction of TRIF-dependent cytokines when TRIF is knocked down", "setting": "THP-1 cells", "value": "reduced to a similar extent"}, {"measurement": "TRIF-dependent RANTES induction under inhibition of endocytosis", "setting": "[1]", "value": "inhibits"}, {"measurement": "MyD88-dependent MIP-1α induction under inhibition of endocytosis", "setting": "[1]", "value": "increases slightly"}, {"measurement": "NF-κB promoter/reporter activation", "setting": "human TLR4, MD-2, CD14", "value": "less NFκB reporter activity"}, {"measurement": "kinetics and magnitude of serum cytokine induction (TNFα, IL-10, RANTES, IP-10, MIG)", "setting": "[2]", "value": "similar"}, {"measurement": "induction of promoter activity, CRX-527 versus CRX-547", "setting": "[3]", "value": "large relative difference"}, {"measurement": "injection site histopathology (myositis)", "setting": "[4]; low dose", "value": "no muscle pathology"}, {"measurement": "gross pathology: white discoloration of muscle along needle track and at site of injection", "setting": "[4]", "value": "not"}, {"measurement": "overall impression of toxicity", "setting": "[4]", "value": "minimally toxic"}, {"measurement": "time of highest IFNβ gene induction", "setting": "[5]", "value": 1, "unit": "h"}, {"measurement": "potency for IP-10 production", "setting": "[6]; wider dose range", "value": "less potent"}, {"measurement": "potency for TNFα production", "setting": "[6]; wider dose range", "value": "less potent"}]}
